In patent publication US20200222474A1, “COMPOSITIONS AND METHODS FOR INCREASING PHYTOCHEMICAL BIOAVAILABLITY AND BIOACTIVITY” (North Carolina State University, priority 2017, published 2020):

System: L. acidophilus NCFM
Experiment: RNA-seq transcriptional analysis of L. acidophilus NCFM growing on plant glycosides
Type: cell-based, Lactobacillus acidophilus
[1] = gene LBA1206 (Hypothetical protein)
[2] = gene LBA1401 (Peroxidase (Npx))
[3] = gene LBA1435 (Hypothetical protein)
[4] = gene LBA1455 (Putative surface layer protein)
[5] = gene LBA1469 (UDP-glucose 4-epimerase)
[6] = gene LBA1656 (Hypothetical protein)
[7] = gene LBA1675 (Hypothetical protein)
[8] = gene LBA1676 (ATP-dependent helicase)
[9] = gene LBA1683 (Putative magnesium-transporting atpase)
[10] = gene LBA1704 (N-Acetylmuramic acid-6-phosphate etherase)
[11] = gene LBA1740 (Hypothetical protein)
[12] = gene LBA1752 (Hypothetical protein)
[13] = gene LBA1769 (Hypothetical protein)
[14] = gene LBA1793 (Hypothetical protein)
[15] = gene LBA1869 (Beta-phosphoglueomutase)
[16] = gene LBA1895 (Hypothetical protein)
[17] = nTPM on plant glycoside relative to glucose, mid-exponential phase

O=c1ccc2cc(O[C@@H]3O[C@H](CO)[C@@H](O)[C@H](O)[C@H]3O)c(O)cc2o1 [Esculin]
Transcripts per million (rpm) (gene LBA1027 (Oxidoreductase)): 2680.9 rpm
Log2 differential normalized TPM ratio compared to glucose [1]: 2.2
Log2 differential normalized TPM ratio compared to lactose [1]: 1
Transcripts per million (rpm) [1]: 636.7 rpm
Log2 differential normalized TPM ratio compared to glucose [2]: 3.1
Log2 differential normalized TPM ratio compared to lactose [2]: 1
Transcripts per million (rpm) [2]: 609.8 rpm
Log2 differential normalized TPM ratio compared to glucose [3]: 5
Log2 differential normalized TPM ratio compared to lactose [3]: 1.3
Transcripts per million (rpm) [3]: 142.3 rpm
Log2 differential normalized TPM ratio compared to glucose [4]: 0.7
Log2 differential normalized TPM ratio compared to lactose [4]: −0.9
Transcripts per million (rpm) [4]: 28.7 rpm
Log2 differential normalized TPM ratio compared to glucose [5]: 2.1
Log2 differential normalized TPM ratio compared to lactose [5]: −2.9
Transcripts per million (rpm) [5]: 385 rpm
Log2 differential normalized TPM ratio compared to glucose [6]: 1.2
Log2 differential normalized TPM ratio compared to lactose [6]: 0.6
Transcripts per million (rpm) [6]: 48.5 rpm
Log2 differential normalized TPM ratio compared to glucose [7]: 2.2
Log2 differential normalized TPM ratio compared to lactose [7]: 0.8
Transcripts per million (rpm) [7]: 1975.8 rpm
Log2 differential normalized TPM ratio compared to glucose [8]: 2
Log2 differential normalized TPM ratio compared to lactose [8]: 0.8
Transcripts per million (rpm) [8]: 1361.3 rpm
Log2 differential normalized TPM ratio compared to glucose [9]: 0.3
Log2 differential normalized TPM ratio compared to lactose [9]: 0.5
Transcripts per million (rpm) [9]: 20.5 rpm
Log2 differential normalized TPM ratio compared to glucose [10]: 1.6
Log2 differential normalized TPM ratio compared to lactose [10]: 0.9
Transcripts per million (rpm) [10]: 21.2 rpm
Log2 differential normalized TPM ratio compared to glucose [11]: 2.4
Log2 differential normalized TPM ratio compared to lactose [11]: 1.6
Transcripts per million (rpm) [11]: 95.9 rpm
Log2 differential normalized TPM ratio compared to glucose [12]: 2.3
Log2 differential normalized TPM ratio compared to lactose [12]: 1.4
Transcripts per million (rpm) [12]: 42.9 rpm
Log2 differential normalized TPM ratio compared to glucose [13]: 1.9
Log2 differential normalized TPM ratio compared to lactose [13]: 0
Transcripts per million (rpm) [13]: 6023.9 rpm
Log2 differential normalized TPM ratio compared to glucose [14]: 0.7
Log2 differential normalized TPM ratio compared to lactose [14]: −2.1
Transcripts per million (rpm) [14]: 28.5 rpm
Log2 differential normalized TPM ratio compared to glucose (gene LBA1796 (ABC exporter)): 1.9
Log2 differential normalized TPM ratio compared to lactose (gene LBA1796 (ABC exporter)): −0.6
Transcripts per million (rpm) (gene LBA1796 (ABC exporter)): 35.2 rpm
Log2 differential normalized TPM ratio compared to glucose [15]: 4.2
Log2 differential normalized TPM ratio compared to lactose [15]: 1.8
Transcripts per million (rpm) [15]: 156.4 rpm
Log2 differential normalized TPM ratio compared to glucose [16]: 1.4
Log2 differential normalized TPM ratio compared to lactose [16]: 1.2
Transcripts per million (rpm) [16]: 74.5 rpm
Log2 Ratio vs Glc, LBA0225 Phospho-β-glucosidase (GH1) [17]: −0.2
Log2 Ratio vs Glc, LBA0227 PTS EIIC [17]: 0.8
Log2 Ratio vs Glc, LBA0228 Transcriptional regulator [17]: 0.9
Log2 Ratio vs Glc, LBA0466 Phosphoenolpyruvate carboxykinase (ATP) [17]: 2
Log2 Ratio vs Glc, LBA0491 PTS EIIC [17]: 3.4
Log2 Ratio vs Glc, LBA0492 Hypothetical protein [17]: 3.7
Log2 Ratio vs Glc, LBA0555 Myosin-cross-reactive antigen/Fatty acid hydratase [17]: 2
Log2 Ratio vs Glc, LBA0606 PTS EIIBC [17]: 2.8
Log2 Ratio vs Glc, LBA0631 Hypothetical protein [17]: 2.9
Log2 Ratio vs Glc, LBA0724 Transcriptional regulator (antiterminator) [17]: 5.5
Log2 Ratio vs Glc, LBA0725 PTS EIICBA [17]: 9.8
Log2 Ratio vs Glc, LBA0726 Phospho-β-glucosidase (GH1) [17]: 6.9
Log2 Ratio vs Glc, LBA0728 Hypothetical protein [17]: 4.8
Log2 Ratio vs Glc, LBA0876 PTS EIIC [17]: 2.9
Log2 Ratio vs Glc, LBA0877 PTS EIIA [17]: 3
Log2 Ratio vs Glc, LBA1401 Peroxidase (Npx) [17]: 3.1
Log2 Ratio vs Glc, LBA1411 Fumarate reductase flavoprotein subunit [17]: 1.7
Log2 Ratio vs Glc, LBA1433 Dihydroxyacetone kinase [17]: 3.7
Log2 Ratio vs Glc, LBA1434 Dihydroxyacetone kinase [17]: 4.5
Log2 Ratio vs Glc, LBA1435 Hypothetical protein [17]: 5
Log2 Ratio vs Glc, LBA1436 Glycerol uptake facilitator protein [17]: 4.9
Log2 Ratio vs Glc, LBA1632 NAD-dependent aldehyde dehydrogenase [17]: 3.3
Log2 Ratio vs Glc, LBA1684 PTS EIIA [17]: 2.9
Log2 Ratio vs Glc, LBA1689 Maltose-6′-phosphate glucosidase (GH4) [17]: 1.8
Log2 Ratio vs Glc, LBA1701 Melibiose operon regulatory protein [17]: 4.9
Log2 Ratio vs Glc, LBA1709 Mucus binding protein precursor [17]: 3.6
Log2 Ratio vs Glc, LBA1797 Hypothetical protein [17]: 2.6
Log2 Ratio vs Glc, LBA1812 α-Glucosidase II (GH31) [17]: 2.8
Log2 Ratio vs Glc, LBA1869 β-Phosphoglucomutase [17]: 4.2
Log2 Ratio vs Glc, LBA1871 Neopullulanase (GH13) [17]: 2.1
Log2 Ratio vs Glc, LBA1873 Acetate kinase [17]: 0.8
Log2 Ratio vs Glc, LBA1974 Pyruvate oxidase [17]: 3.6
